Ten compounds from US20100216785A1, “PHARMACEUTICAL COMPOSITIONS” (NEUROSCIENZE PHARMANESS S.C. A.R.L., priority 2009, published 2010) can be followed below.

The structures appear in SMILES notation.

T2 sequence (P47936 whole entry): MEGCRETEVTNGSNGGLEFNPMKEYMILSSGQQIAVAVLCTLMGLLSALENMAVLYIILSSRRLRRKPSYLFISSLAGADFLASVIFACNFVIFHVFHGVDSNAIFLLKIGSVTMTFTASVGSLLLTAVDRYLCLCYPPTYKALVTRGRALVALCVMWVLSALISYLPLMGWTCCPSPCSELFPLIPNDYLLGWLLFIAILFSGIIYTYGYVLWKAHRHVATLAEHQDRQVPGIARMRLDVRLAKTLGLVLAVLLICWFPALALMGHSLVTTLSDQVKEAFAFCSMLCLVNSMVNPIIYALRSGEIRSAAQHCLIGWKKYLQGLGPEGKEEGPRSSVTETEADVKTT

Tested on in one data set: not given
Assay: not given
Settings: not given
Compound `Cc1ccc2c(c1)oc1c(C(N)=O)nn(-c3ccc(Cl)cc3Cl)c12` [1-(2,4-dichlorophenyl)-6-methyl-1H-benzofuro[3,2-c]pyrazole-3-carboxamide] returned a melting point of 185 to 186 °C.
For `Cc1ccc2c(c1)oc1c(C(=O)NN3CCCC3)nn(-c3ccc(Cl)cc3Cl)c12` [Example 3.21, N-pirrolidinyl-1-(2,4-dichlorophenyl)-6-methyl-1H-benzofuro[3,2-c]pyrazole-3-carboxamide], the melting point is 90 to 92 °C.
In the case of `Cc1ccc2c(c1)oc1c(C(=O)NN3CCOCC3)nn(-c3ccc(Cl)cc3Cl)c12` [Example 3.22, N-morpholin-4yl-1-(2,4-dichlorophenyl)-6-methyl-1H-benzofuro[3,2-c]pyrazole-3-carboxamide], the melting point fell in the range of 178 to 180 °C.
Turning to `Cc1ccc2c(c1)oc1c(C(=O)NC3CCCCC3)nn(-c3ccc(Cl)cc3Cl)c12` [Example 3.23, N-cyclohexyl-1-(2,4-dichlorophenyl)-6-methyl-1H-benzofuro[3,2-c]pyrazole-3-carboxamide], the melting point fell in the range of 140 to 142 °C.
`Cc1ccc2c(c1)oc1c(C(=O)N[C@H]3C[C@@H](C)CC[C@@H]3C(C)C)nn(-c3ccc(Cl)cc3Cl)c12` [Example 3.24, N-2-isopropyl-5-methyl-cyclohexyl-1-(2,4-dichlorophenyl)-6-methyl-1H-benzofuro[3,2-c]pyrazole-3-carboxamide] yielded a melting point of 70 to 72 °C.
In turn, `Cc1ccc2c(c1)oc1c(C(=O)N[C@@H]3C[C@H]4C[C@@H]([C@@H]3C)C4(C)C)nn(-c3ccc(Cl)cc3Cl)c12` [Example 3.25, N-2,6,6-trimethyl-bicyclo[3.1.1]hept-3yl-1-(2,4-dichlorophenyl)-6-methyl-1H-benzofuro[3,2-c]pyrazole-3-carboxamide] returned a melting point of 85 to 87 °C.
As for `Cc1ccc2c(c1)oc1c(C(=O)NC3C4(C)CCC(C4)C3(C)C)nn(-c3ccc(Cl)cc3Cl)c12` (stereo not drawn) [Example 3.26, N-1,3,3-trimethyl-bicyclo[2.2.1]hept-2yl-1-(2,4-dichlorophenyl)-6-methyl-1H-benzofuro[3,2-c]pyrazole-3-carboxamide], the melting point fell in the range of 84 to 86 °C.
With `Cc1ccc2c(c1)oc1c(C(=O)NC3CC4CCC3(C)C4(C)C)nn(-c3ccc(Cl)cc3Cl)c12` (stereo not drawn) [Example 3.27, N-1,7,7-trimethyl-bicyclo[2.2.1]hept-2yl-1-(2,4-dichlorophenyl)-6-methyl-1H-benzofuro[3,2-c]pyrazole-3-carboxamide], the melting point fell in the range of 78 to 80 °C.
In the case of `Cc1ccc2c(c1)oc1c(C(=O)NC34CC5CC(CC(C5)C3)C4)nn(-c3ccc(Cl)cc3Cl)c12` [Example 3.28, N-adamantan-1yl-1-(2,4-dichlorophenyl)-6-methyl-1H-benzofuro[3,2-c]pyrazole-3-carboxamide], the melting point lay within 210 to 212 °C.
Take `Cc1ccc2c(c1)oc1c(C(=O)NC3C4CC5CC(C4)CC3C5)nn(-c3ccc(Cl)cc3Cl)c12` (stereo not drawn) [Example 3.29, N-adamantan-2yl-1-(2,4-dichlorophenyl)-6-methyl-1H-benzofuro[3,2-c]pyrazole-3-carboxamide]: the melting point was in the range of 209 to 211 °C.

For another data set, the target named is T1, CB1 cannabinoidergic receptors (Mus musculus, UniProt P47746).
T1 construct: the complete brain (excluding the cerebellum) and the spleen were quickly dissected and kept in ice; from tissue; host or cells: mouse brain (excluding the cerebellum) membranes
T1 sequence (P47746 whole entry): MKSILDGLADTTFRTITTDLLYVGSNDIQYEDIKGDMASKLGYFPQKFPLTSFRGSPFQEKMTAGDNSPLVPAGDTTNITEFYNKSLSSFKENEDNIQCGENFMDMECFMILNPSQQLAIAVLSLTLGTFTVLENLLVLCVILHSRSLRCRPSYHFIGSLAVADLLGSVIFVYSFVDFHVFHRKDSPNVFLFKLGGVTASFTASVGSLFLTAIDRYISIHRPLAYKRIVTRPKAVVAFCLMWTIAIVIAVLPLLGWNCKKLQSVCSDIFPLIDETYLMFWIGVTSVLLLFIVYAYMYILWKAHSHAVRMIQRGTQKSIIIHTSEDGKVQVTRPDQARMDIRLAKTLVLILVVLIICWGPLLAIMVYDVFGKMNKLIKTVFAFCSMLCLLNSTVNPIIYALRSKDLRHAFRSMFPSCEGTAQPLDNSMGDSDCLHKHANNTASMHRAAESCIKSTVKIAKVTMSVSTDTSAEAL
Description: Radioreceptor binding, displacement of [3H]-CP-55,940, CB1 receptors (mouse brain membranes).
Settings: not given
On the procedure:
(§1) The affinity of the compounds towards the CB1 and CB2 cannabinoidergic receptors was evaluated in vitro by radioreceptor binding studies using the following method.
(§2) The technique of the receptor binding allows to establish if, and with which affinity and specificity, a specific compound binds to a particular receptor. To evaluate the affinity of a specific compound to a particular receptor it is necessary to challenge in a particular tissue preparation wherein those specific receptors are present the compound to be tested with a radioactive labelled compound whose affinity for the same receptors is known. […] The amount of radioactivity present in the receptor-compound complex allows furthermore to stimate with great accuracy the amount of compound bound to the receptor. By said method it is therefore possible to stablish quickly the affinity of a new compound towards a specific receptor and thus to determine its pharmacological activity. […]
(§3) The thus obtained membranes (50-80 μg of proteins) were incubated in the presence of 1 nM of [^3H]-CP55.940 for 1 hour at 30° C. in a final volume of 0.5 ml of TME buffer containing 5 mg/ml of bovine serum albumin (BSA). The non specific binding was measured in the presence of CP55.940 at a 1 μM concentration. […]
(§4) The radioactivity present in the filters was determined by a scintillator spectrophotometer (Tricarb® 2100, Packard, Meridien, USA). […]
(Displacement assays read how much labelled ligand stays bound in the presence of the test substance.)
`Cc1ccc2c(c1)oc1c(C(N)=O)nn(-c3ccc(Cl)cc3Cl)c12` [1-(2,4-dichlorophenyl)-6-methyl-1H-benzofuro[3,2-c]pyrazole-3-carboxamide] returned a Ki above 3 µM.

Another data set addresses T2, CB2 cannabinoidergic receptors (Mus musculus, UniProt P47936).
T2 construct: the complete brain (excluding the cerebellum) and the spleen were quickly dissected and kept in ice; from tissue; host or cells: mouse spleen membranes
The experiment in a line: Radioreceptor binding, displacement of [3H]-CP-55,940, CB2 receptors (mouse spleen membranes). The following applies: 1 nM [3H]-CP55,940, 1 hour at 30° C. As to the method:
as §1, §2, §3, §4
The compound `Cc1ccc2c(c1)oc1c(C(N)=O)nn(-c3ccc(Cl)cc3Cl)c12` [1-(2,4-dichlorophenyl)-6-methyl-1H-benzofuro[3,2-c]pyrazole-3-carboxamide] yielded a Ki above 3 µM.

What is called melting point is the temperature, or range, at which the solid turns liquid. The Ki is a dissociation constant, usually derived from enzyme kinetics or from competition with a known ligand. Low readings indicate tighter binding, high ones weaker binding.
